Assay [1] concerns the target T1, MAP/microtubule affinity-regulating kinase 4 (Homo sapiens) (UniProt Q96L34).
T1 sequence (whole entry): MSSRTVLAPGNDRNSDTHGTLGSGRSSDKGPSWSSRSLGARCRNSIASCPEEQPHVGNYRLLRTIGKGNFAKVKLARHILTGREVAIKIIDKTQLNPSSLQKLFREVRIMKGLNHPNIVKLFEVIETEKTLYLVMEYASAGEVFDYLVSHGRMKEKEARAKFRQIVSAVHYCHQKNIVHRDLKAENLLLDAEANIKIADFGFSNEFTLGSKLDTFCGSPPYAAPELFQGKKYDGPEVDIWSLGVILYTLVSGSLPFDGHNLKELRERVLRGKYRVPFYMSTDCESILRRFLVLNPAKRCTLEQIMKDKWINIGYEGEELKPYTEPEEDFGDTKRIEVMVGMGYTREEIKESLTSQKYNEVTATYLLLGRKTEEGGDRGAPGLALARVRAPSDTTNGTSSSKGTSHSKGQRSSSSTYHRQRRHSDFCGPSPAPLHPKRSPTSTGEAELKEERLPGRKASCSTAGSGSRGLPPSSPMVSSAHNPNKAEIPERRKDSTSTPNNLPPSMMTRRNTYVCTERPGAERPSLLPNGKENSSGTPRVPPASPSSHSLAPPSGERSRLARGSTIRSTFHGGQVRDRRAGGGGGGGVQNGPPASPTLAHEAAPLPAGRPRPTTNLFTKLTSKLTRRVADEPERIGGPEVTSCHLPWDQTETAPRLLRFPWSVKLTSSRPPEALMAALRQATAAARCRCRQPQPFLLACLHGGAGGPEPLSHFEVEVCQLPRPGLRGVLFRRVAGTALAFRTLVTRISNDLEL
The experiment in a line: Selectivity interaction (ProQinase) EUB0000171b MARK4.

For assay [2], the target named is Wee1-like protein kinase (Homo sapiens) (UniProt P30291). The experiment in a line: Selectivity interaction (Ambit KINOMEscan and KiNATiv profiling in Jurkat cells) EUB0000090b WEE1. It is filed as cell-based. Conditions: at 1 µM.
Chain of Wee1-like protein kinase (Homo sapiens) (P30291 whole entry, looked up): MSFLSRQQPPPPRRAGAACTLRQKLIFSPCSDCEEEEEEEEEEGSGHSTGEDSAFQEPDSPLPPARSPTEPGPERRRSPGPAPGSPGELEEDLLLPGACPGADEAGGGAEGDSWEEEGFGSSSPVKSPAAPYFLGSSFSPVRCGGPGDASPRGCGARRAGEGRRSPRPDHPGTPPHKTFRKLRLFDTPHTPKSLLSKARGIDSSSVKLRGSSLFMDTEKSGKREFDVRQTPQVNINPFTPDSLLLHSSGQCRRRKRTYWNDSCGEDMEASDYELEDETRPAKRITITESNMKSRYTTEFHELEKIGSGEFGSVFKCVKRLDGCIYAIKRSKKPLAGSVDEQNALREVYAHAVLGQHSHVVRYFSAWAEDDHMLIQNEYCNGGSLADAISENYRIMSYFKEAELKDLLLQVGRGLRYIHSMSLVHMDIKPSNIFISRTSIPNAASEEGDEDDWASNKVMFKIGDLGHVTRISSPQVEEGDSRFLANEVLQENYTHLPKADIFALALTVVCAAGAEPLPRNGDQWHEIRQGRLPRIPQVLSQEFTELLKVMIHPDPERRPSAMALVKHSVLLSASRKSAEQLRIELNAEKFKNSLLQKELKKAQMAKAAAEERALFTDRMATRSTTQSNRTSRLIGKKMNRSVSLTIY
In assay [3] the target is Cyclin-dependent kinase 2 (Homo sapiens, UniProt P24941). Conditions: at 10 µM.
In assay [4] the target is T2, Mitogen-activated protein kinase 15 (Homo sapiens) (UniProt Q8TD08).
T2 sequence (whole entry): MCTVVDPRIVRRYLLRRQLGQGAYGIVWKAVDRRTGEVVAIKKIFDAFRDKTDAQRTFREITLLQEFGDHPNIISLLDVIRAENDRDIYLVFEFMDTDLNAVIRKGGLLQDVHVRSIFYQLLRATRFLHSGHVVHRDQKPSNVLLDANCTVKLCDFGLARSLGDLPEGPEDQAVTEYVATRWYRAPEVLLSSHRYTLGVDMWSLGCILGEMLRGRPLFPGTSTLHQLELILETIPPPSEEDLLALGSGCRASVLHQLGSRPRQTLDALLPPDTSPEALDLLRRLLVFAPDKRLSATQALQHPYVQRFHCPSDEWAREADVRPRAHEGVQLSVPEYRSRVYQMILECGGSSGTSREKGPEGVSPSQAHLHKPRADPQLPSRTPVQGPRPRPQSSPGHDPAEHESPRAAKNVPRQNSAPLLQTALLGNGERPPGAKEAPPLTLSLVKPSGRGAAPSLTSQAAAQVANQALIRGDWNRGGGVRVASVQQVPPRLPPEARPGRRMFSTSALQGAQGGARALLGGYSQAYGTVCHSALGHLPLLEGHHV
The experiment in a line: Selectivity interaction (KinomeScan (DiscoverX)) EUB0000092b MAPK15. Conditions: at 10 µM.

For assay [5], the target named is Cyclin-dependent kinase 13 (Homo sapiens, UniProt Q14004). The experiment in a line: Selectivity interaction (KinomeScan (DiscoverX)) EUB0000655a CDK13. Conditions: at 10 µM.
Chain of Cyclin-dependent kinase 13 (Q14004 whole entry, looked up): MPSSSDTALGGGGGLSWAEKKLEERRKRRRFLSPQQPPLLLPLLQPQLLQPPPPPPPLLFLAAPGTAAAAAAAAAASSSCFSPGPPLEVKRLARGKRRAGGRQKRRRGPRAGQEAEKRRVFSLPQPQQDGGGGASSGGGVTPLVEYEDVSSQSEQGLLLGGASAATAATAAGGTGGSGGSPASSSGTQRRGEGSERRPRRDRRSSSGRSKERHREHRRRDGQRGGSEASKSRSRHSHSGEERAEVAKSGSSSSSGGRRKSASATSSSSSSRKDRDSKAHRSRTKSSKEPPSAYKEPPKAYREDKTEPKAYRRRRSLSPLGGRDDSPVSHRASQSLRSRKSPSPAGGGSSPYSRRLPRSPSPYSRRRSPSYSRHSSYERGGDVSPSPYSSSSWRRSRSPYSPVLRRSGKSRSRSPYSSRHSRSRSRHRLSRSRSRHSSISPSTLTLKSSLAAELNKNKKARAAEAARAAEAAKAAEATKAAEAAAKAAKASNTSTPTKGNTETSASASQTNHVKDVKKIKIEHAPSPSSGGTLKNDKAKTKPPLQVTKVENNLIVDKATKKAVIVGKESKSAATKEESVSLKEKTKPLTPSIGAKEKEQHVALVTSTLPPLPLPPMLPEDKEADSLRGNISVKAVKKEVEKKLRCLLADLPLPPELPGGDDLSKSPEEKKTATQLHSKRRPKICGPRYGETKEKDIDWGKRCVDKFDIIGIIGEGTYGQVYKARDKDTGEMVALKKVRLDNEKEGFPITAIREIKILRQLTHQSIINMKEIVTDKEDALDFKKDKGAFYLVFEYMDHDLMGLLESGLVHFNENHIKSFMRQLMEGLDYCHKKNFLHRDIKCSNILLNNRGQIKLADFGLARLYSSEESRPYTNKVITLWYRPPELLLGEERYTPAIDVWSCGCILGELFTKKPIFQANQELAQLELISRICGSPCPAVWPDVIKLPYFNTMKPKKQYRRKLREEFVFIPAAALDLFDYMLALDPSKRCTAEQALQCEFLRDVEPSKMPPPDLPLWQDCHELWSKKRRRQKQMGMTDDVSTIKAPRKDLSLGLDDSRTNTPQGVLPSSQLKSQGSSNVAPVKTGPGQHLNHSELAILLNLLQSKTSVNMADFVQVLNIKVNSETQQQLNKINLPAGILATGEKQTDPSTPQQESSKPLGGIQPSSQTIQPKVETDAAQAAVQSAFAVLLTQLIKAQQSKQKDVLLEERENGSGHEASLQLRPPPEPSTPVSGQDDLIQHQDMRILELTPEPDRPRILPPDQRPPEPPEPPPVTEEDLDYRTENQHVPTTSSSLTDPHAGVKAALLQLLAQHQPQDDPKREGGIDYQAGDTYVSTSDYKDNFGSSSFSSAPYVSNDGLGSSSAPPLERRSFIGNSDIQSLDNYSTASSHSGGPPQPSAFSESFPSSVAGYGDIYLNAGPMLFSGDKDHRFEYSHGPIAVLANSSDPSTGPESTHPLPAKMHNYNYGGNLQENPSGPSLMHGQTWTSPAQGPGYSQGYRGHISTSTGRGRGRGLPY
Assay [6] deals with Cyclin-dependent kinase 14 (Homo sapiens) (UniProt O94921). The experiment in a line: Selectivity interaction (KinomeScan (DiscoverX)) EUB0000695a CDK14. Conditions: at 100 nM.
Chain of Cyclin-dependent kinase 14 (Homo sapiens) (O94921 whole entry): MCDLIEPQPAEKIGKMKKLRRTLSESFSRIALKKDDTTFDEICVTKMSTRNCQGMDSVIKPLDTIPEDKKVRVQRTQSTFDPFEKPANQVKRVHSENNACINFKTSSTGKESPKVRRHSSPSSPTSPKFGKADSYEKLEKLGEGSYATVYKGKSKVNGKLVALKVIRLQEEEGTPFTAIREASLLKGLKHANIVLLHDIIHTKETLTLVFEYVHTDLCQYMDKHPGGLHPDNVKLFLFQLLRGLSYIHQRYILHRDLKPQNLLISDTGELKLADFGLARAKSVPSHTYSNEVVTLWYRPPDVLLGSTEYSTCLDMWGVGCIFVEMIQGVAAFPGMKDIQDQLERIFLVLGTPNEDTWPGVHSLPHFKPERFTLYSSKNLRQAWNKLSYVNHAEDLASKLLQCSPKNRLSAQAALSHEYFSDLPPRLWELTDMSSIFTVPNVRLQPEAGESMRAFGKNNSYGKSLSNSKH
For assay [7], the target named is Cholecystokinin receptor type A (Homo sapiens) (UniProt P32238). The experiment in a line: Selectivity interaction (Eurofins CEREP Diversity Profile (receptors and ion channels)) EUB0000279b CCKAR. Conditions: at 10 µM.
Chain of Cholecystokinin receptor type A (Homo sapiens) (P32238 whole entry): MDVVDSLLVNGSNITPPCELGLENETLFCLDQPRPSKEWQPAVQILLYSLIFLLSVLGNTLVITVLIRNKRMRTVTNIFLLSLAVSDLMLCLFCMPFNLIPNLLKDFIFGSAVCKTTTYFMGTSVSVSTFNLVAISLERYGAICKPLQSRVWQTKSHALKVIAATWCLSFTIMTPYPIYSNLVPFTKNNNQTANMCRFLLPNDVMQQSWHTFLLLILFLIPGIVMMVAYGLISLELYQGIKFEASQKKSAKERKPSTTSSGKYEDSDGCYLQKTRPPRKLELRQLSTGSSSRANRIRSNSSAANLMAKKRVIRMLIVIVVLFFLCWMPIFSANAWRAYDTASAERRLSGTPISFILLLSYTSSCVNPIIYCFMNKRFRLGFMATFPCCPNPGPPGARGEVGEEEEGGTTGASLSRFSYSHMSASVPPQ
Assay [8] concerns the target T3, Serine/threonine-protein kinase Nek9 (Homo sapiens) (UniProt Q8TD19).
T3 sequence (whole entry): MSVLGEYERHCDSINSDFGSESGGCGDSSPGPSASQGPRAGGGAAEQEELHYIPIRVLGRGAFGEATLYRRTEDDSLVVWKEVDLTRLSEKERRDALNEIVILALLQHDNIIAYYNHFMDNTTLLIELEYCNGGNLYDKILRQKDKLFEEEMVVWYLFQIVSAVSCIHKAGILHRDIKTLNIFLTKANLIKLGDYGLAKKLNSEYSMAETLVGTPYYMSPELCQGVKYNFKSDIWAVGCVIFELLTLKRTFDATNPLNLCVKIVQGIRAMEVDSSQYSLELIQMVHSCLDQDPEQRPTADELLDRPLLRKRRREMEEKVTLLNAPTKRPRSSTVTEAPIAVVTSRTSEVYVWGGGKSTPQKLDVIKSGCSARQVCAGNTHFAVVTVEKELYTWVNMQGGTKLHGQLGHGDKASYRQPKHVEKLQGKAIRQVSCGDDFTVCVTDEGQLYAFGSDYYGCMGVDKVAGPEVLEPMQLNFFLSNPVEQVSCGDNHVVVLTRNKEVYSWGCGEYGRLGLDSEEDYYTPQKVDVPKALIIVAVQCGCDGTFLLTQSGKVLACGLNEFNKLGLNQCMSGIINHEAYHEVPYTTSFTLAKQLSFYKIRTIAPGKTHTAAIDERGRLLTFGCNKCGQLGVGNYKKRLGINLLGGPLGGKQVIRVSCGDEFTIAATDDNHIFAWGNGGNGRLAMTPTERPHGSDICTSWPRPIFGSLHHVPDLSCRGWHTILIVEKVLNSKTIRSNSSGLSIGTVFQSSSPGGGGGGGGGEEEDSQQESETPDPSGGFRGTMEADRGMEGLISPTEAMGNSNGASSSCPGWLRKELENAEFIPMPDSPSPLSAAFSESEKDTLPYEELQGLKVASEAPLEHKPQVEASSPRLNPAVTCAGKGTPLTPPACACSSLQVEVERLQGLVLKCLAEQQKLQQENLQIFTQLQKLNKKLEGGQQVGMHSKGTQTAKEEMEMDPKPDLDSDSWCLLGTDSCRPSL
Put plainly: Selectivity interaction (ActivX KiNativ screen (ex vivo kinase selectivity in human PBMCs)) EUB0001619a NEK9. Conditions: PBMC, at 1 µM. It is filed as cell-based.

For `C=CC(=O)Nc1cccc(C(=O)Nc2ccc(Nc3cc(-c4[nH]c(SC)nc4C)ccn3)cc2)c1`, the % of control in assay [1] (at 1 µM) came out at 92%; in assay [1] (at 5 µM), 99%. In assay [2], `CN(C)C/C=C/C(=O)Nc1ccc(C(=O)N2CCCC(Nc3ncc(Cl)c(-c4c[nH]c5ccccc45)n3)C2)cc1` (centres undefined) showed a % of control of 77%. For the molecule `CCN(CC)CCCCNc1ncc2cc(-c3cc(OC)cc(OC)c3)c(NC(=O)NC(C)(C)C)nc2n1`, the % of control in assay [3] is 100%. On to `CCC(=O)N1CCN(c2ccc(-n3c(=O)ccc4cnc5ccc(-c6cnc7ccccc7c6)cc5c43)cc2C(F)(F)F)CC1`, for which the % of control in assay [4] turned out to be 79%. Take `CN(C)CCOc1ccc(-c2nc(-c3ccncc3)c(-c3ccc4c(c3)CC/C4=N\O)[nH]2)cc1`: the % of control in assay [5] turned out to be 100%. Turning to `Cc1cc(F)c(C(=O)Nc2cccc(-c3nncn3C(C)C)n2)cc1-n1cnc(C2CC2)c1`, the % of control in assay [6] was found to be 49%. `CC(=O)c1cc(-c2ccccc2OCC2CC2)c2ncccn12`: the % of control in assay [7] was 116%. Molecule `N#Cc1cccc(-c2c[nH]c3ncnc(N4CCOCC4)c23)c1` yielded a % of inhibition in assay [8] of 1%.

The record behind these values is ChEMBL document CHEMBL5465560, “Selectivity Literature for EUbOPEN Chemogenomic Library” (2024).
